# Measurements published in patent US20230416852A1, “METHODS FOR IDENTIFYING COMPOSITIONS FOR INHIBITING VIRAL INFECTIVITY” (priority 2020, published 2023).
# Tests used:
# HIV-1 NL4-3-GFP = HIV-1 NL4-3-GFP infection of CEM SS cells (no A3G); assay type: cell-based; details: CEM SS cells compared to CEM-GFP cells, FIG. 6B
# Experimental: (§1) As discussed above, Vif functions as an inhibitor to A3G antiviral function. […] The A3G-dependent antiviral effects of the hits were tested using CD4+T, CEM-GFP, and CEM SS cell lines. […] The Vif specific inhibitor should show high anti-HIV potency in CEM-GFP cells (and not in CEM SS cells). The CEM-GFP cell line expresses GFP upon HIV infection driven by HIV NL4-3 LTR. It can be used to measure HIV replication (Gervaix A, et at Proc Natl Acad Sci USA. 1997; 94 (9):4653-8.)
# In FIG. 6B, HIV-1 NL4-3-GFP was used to infect CEM SS cell line.
# CEM cells = experiment: Presto Blue Cytotoxicity Assay; details: read-out: IC50 cytotoxicity, FIG. 6C
# Excerpt: In this assay, live cells show 586 nm fluoresce red. The higher the fluorescence, the more viable the cells are. Therefore, 100% cell death should result in no fluorescence.
# [1] = tested on: A3G related G to A hypermutation in HIV-1 viral cDNA; experiment: G to A hypermutation analysis of HIV-1 viral cDNA by next-generation sequencing in SupT1 cells; assay type: cell-based; details: 1 μM; for average G to A hypermutation rate for each position: average over positions; for average G to A hypermutation rate for each position / G to A hypermutation rate / total G to A hypermutation rate: 6 hours, SupT1, HIV IIIB; for total G to A hypermutation rate: total over all positions
# Experimental: The hallmark of A3G antiviral function is to induce G to A hypermutation in HIV cDNA. Therefore, it is very important to evaluate whether quinobene restores A3G's capability to induce G to A hypermutation rates in HIV cDNA. To do this, SupT1 cells were infected with HIV IIIB (350 ng p24)+DMSO or HVI IIIB (350 ng p24)+1 μM quinobene for 6 hours. After infection, DNA was isolated using a DNeasy Blood and Tissue DNA isolation kit (QIAGEN). A 199-bp DNA fragment covering a portion of LTR of HIV-1 was amplified with Taq DNA polymerase using the primers IIIB-F (5′-[…]) and HIV-1-R (5′-[…]). The PCR products were purified by QIAquick PCR Purification Kit (Qiagen) and sent to GENEWIZ, Inc (South Plainfield, NJ) for G to A hypermutation analysis using their Amplicon-EZ service, a next-generation sequencing-based sequencing service, allowed detection of low-frequency variants quantitatively. The G to A hypermutation rate was calculated using CLC Genomic Workbench.
# HIV IIIB replication = HIV IIIB replication in A3G-expressing CEM-GFP cells; assay type: cell-based, HIV-1; details: Human immunodeficiency virus 1, IIIB, FIG. 6A, read-out: IC50 inhibiting HIV IIIB replication
# Experimental: as §1
# [2] = molecular target: T1, Vif function of inhibiting A3G CDA (Human immunodeficiency virus type 1 group M subtype B, UniProt P69723); assay type: biochemical, HIV-1; details: 5 uM
# T1 sequence (P69723 whole entry): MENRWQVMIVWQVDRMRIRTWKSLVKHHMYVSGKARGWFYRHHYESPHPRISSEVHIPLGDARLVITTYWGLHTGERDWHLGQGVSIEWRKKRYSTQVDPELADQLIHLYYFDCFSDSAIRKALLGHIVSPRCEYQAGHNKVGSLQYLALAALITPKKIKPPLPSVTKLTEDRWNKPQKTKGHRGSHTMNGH
# Excerpt: This assay detects C to U mutation using a highly specific Stu I restriction enzyme digestion method. FIG. 4A is a schematic diagram of the PCR and restriction digestion-based CDA assay. CCC-150 is converted to CCU-150 under the enzymatic activity of A3G. […] In the presence of Vif, Vif will inhibit A3G enzymatic activity, so that reduced or no CCU-150 will be produced. Therefore, less or no Stu I cutting sites will form, and no digestion will occur.
# The CDA products were subjected to PCR followed by Stu I digestion. The digestion products were applied to a 10% polyacrylamide gel for separation. SYBR Gold was used to visualize the bands. L-Cefixime refers to Compound I identified above.
# [3] = tested on: Vif induced A3G degradation; experiment: Western blot of Vif induced A3G degradation in transfected 293T cells; assay type: cell-based; details: 5 μM, FIG. 7A
# Experimental: (§2) An A3G expression vector was co-transfected with Vif, or with the empty vector as control. The A3G expression vector was also co-transfected with either a wild-type viral construct HXB2, Vif deficient viral construct HXB2ΔVif, or pcDNA3.1 (as a control) into 293T cells. Immediately following transfection, 5 μM quinobene was used to treat the 293T cells. After 48 hours post-transfection, culture supernatants were subjected to ultracentrifuge to pellet down the virus. Viral lysates were analyzed by Western blot.
# A3G viral encapsidation = experiment: Western blot of A3G viral encapsidation (viral lysates from 293T cells); assay type: cell-based; details: 5 μM, FIG. 7B
# Experimental: as §2
# [4] = molecular target: T1, Vif function of inhibiting A3G CDA; experiment: biochemical; assay type: biochemical, HIV-1; details: 10 μM compounds; 20% cutoff stringency, i.e. 20% increase in A3G CDA versus controls; positive control set as 1
# Excerpt: The A3G CDA edits the CCC sequence to predominantly to a CCU sequence. To specifically measure the C to U rate, three reverse primers R1, R2, and R3 were designed in the initial study.
# Using the qPCR-based screening assay described in Example 1, the NCI Diversity Set VI, NCI Mech Set V, and NIH SMR were screened against Vif function of inhibiting A3G. The NCI Diversity Set VI was derived from almost 140,000 compounds available for distribution in the library of the NCI Developmental Therapeutics Program. […] The qPCR-based CDA assay was used to screen the libraries in 96-well plates with negative controls (no A3G and Vif), positive control (no Vif), and 10 μM compounds. Hits were selected at 20% cutoff stringency (above 0.2), i.e., 20% increase in A3G CDA versus controls. Any compounds that restored A3G activity by 20% or more were selected. The positive control was set as 1.
smiles,measurement,setting,value
"O=S(=O)(O)c1cc(N=Nc2cc(S(=O)(=O)O)c3cccnc3c2O)ccc1C=Cc1ccc(N=Nc2cc(S(=O)(=O)O)c3cccnc3c2O)cc1S(=O)(=O)O [Compound IX, quinobene]",antiviral function,HIV-1 NL4-3-GFP,lost its antiviral function
same,IC50,CEM cells,~50 µM
same,positions showing G to A hypermutation rate increases,[1]; 22 out of 26 positions versus untreated,84.6%
same,average G to A hypermutation rate for each position,[1]; listed as Quino,2.32%
same,average G to A hypermutation rate for each position,[1]; listed as quinobene,2.31%
same,G to A hypermutation rate,[1]; position 22,5.51%
same,G to A hypermutation rate,[1]; position 23,0.27%
same,G to A hypermutation rate,[1]; position 35,1.92%
same,G to A hypermutation rate,[1]; position 36,3.87%
same,G to A hypermutation rate,[1]; position 37,0.43%
same,G to A hypermutation rate,[1]; position 47,1.84%
same,G to A hypermutation rate,[1]; position 48,0.38%
same,G to A hypermutation rate,[1]; position 51,0%
same,G to A hypermutation rate,[1]; position 56,0.53%
same,G to A hypermutation rate,[1]; position 61,6.47%
same,G to A hypermutation rate,[1]; position 62,0%
same,G to A hypermutation rate,[1]; position 65,5.65%
same,G to A hypermutation rate,[1]; position 68,0.38%
same,G to A hypermutation rate,[1]; position 71,2.13%
same,G to A hypermutation rate,[1]; position 72,2.1%
same,G to A hypermutation rate,[1]; position 73,0.28%
same,G to A hypermutation rate,[1]; position 78,0.28%
same,G to A hypermutation rate,[1]; position 126,8.57%
same,G to A hypermutation rate,[1]; position 127,0.33%
same,G to A hypermutation rate,[1]; position 136,1.39%
same,G to A hypermutation rate,[1]; position 157,8.43%
same,G to A hypermutation rate,[1]; position 158,0.19%
same,G to A hypermutation rate,[1]; position 168,0.6%
same,G to A hypermutation rate,[1]; position 177,4.16%
same,G to A hypermutation rate,[1]; position 178,2.37%
same,total G to A hypermutation rate,[1]; listed as Quino,58.08%
same,total G to A hypermutation rate,[1]; listed as quinobene,58%
same,IC50,HIV IIIB replication,< 0.75 µM
same,restoration of Stu I digestion product,[2],dramatically restored the digestion product
same,influence on Vif induced A3G degradation,[3],minimal to no influence
same,effects on A3G viral encapsidation,A3G viral encapsidation,minimal to no effects
same,hit for restoring A3G CDA in the presence of Vif,[4],hits and hit
